# Reference: patent US20250230165A1, “HETEROCYCLIC COMPOUNDS FOR USE IN THE TREATMENT OF CANCER” (ARTIOS PHARMA LIMITED, priority 2021, published 2025)
# Biological target: T1, Human Polθ polymerase domain (aa1820-2590) (Homo sapiens, UniProt O75417)
# T1 construct: Human Polθ polymerase domain (aa1820-2590) was expressed in E. coli; made in house; host or cells: E. coli
# T1 sequence (O75417 1820-2590): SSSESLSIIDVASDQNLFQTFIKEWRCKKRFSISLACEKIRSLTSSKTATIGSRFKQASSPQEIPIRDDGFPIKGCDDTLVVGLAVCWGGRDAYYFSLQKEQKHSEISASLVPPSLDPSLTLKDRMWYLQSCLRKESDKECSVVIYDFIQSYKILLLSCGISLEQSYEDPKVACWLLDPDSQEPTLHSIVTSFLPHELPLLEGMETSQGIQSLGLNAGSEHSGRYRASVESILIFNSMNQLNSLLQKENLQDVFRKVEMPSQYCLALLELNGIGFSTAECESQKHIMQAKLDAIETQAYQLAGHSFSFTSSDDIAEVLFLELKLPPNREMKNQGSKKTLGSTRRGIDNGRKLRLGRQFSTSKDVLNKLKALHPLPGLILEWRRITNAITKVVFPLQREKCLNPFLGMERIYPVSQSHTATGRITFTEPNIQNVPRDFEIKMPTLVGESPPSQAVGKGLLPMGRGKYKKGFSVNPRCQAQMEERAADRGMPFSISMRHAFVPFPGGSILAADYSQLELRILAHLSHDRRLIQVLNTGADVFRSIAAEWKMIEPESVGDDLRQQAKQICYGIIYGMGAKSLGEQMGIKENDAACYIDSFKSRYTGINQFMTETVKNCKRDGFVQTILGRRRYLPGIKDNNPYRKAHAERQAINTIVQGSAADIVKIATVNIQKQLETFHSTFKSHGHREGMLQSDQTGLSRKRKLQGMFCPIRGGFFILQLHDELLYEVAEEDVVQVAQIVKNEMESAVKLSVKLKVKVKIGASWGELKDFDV
# Assay: Polθ Polymerase Domain Kinact/KI Assay (PicoGreen)
# Type: biochemical
# Conditions: 0.8 nM Polθ, 100 nM DNA substrate, kobs vs [I] fit for 2-step covalent inhibitor
# Summary of the method: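 Enzyme 0.8 nM, annealed DNA substrate 100 nM, […]; 25 mM Tris pH 7.5, 5% glycerol, 0.01% Triton X-100, 0.1 mg/ml BSA, 1 mM DTT, 1% DMSO. Quench with EDTA at timepoints to 60 min; PicoGreen read. kobs from time courses → Kinact/KI.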
row,Kinact/Kl [µM⁻¹ s⁻¹],Structure (SMILES)
1,1.70,"C=CC(=O)N1CCn2nc(CN3C[C@H]4CC(=O)N(c5cc(C(F)(F)F)cc(C)n5)[C@@H]4C(=O)N(C)c4cccc(F)c43)nc2C1 [Example 133, (3aR,11aS)-5-((7-acryloyl-5,6,7,8-tetrahydro-[1,2,4]triazolo[1,5-a]pyrazin-2-yl)methyl)-6-fluoro-10-methyl-1-(6-methyl-4-(trifluoromethyl)pyridin-2-yl)-1,3a,4,5,10,11a-hexahydro-2H-benzo[b]pyrrolo[2,3-f][1,4]diazocine-2,11(3H)-dione]"
2,0.062,"C=CC(=O)N1CCn2c(nnc2CN2C[C@H]3CC(=O)N(c4cc(C(F)(F)F)cc(C)n4)[C@@H]3C(=O)N(C)c3cccc(F)c32)C1 [Example 134, (3aR,11aS)-5-((7-acryloyl-5,6,7,8-tetrahydro-[1,2,4]triazolo[4,3-a]pyrazin-3-yl)methyl)-6-fluoro-10-methyl-1-(6-methyl-4-(trifluoromethyl)pyridin-2-yl)-1,3a,4,5,10,11a-hexahydro-2H-benzo[b]pyrrolo[2,3-f][1,4]diazocine-2,11(3H)-dione]"
3,2.00,"C=CC(=O)N1CCC(n2cnc(CN3C[C@H]4CC(=O)N(c5cc(C(F)(F)F)cc(C)n5)[C@@H]4C(=O)N(C)c4cccc(Cl)c43)n2)CC1 [Example 135, (3aR,11aS)-5-((1-(1-acryloylpiperidin-4-yl)-1H-1,2,4-triazol-3-yl)methyl)-6-chloro-10-methyl-1-(6-methyl-4-(trifluoromethyl)pyridin-2-yl)-1,3a,4,5,10,11a-hexahydro-2H-benzo[b]pyrrolo[2,3-f][1,4]diazocine-2,11(3H)-dione]"
4,1.08,"C=CC(=O)N1CC(N(C)CCCN2C[C@H]3CC(=O)N(c4cc(C(F)(F)F)cc(C)n4)[C@@H]3C(=O)N(C)c3cccc(Cl)c32)C1 [Example 138, (3aR,11aS)-5-(3-((1-acryloylazetidin-3-yl)(methyl)amino)propyl)-6-chloro-10-methyl-1-(6-methyl-4-(trifluoromethyl)pyridin-2-yl)-1,3a,4,5,10,11a-hexahydro-2H-benzo[b]pyrrolo[2,3-f][1,4]diazocine-2,11(3H)-dione]"
5,1.34,"Cc1cc(C(F)(F)F)cc(N2C(=O)C[C@@H]3CN(Cc4ccn(C5CN(C(=O)/C=C/CN(C)C)C5)n4)c4c(F)cccc4N(C)C(=O)[C@H]32)n1 [Example 145, (3aR, 11aS)-5-((1-(1-((E)-4-(dimethylamino)but-2-enoyl)azetidin-3-yl)-1H-pyrazol-3-yl)methyl)-6-fluoro-10-methyl-1-(6-methyl-4-(trifluoromethyl)pyridin-2-yl)-1,3a,4,5,10,11a-hexahydro-2H-benzo[b]pyrrolo[2,3-f][1,4]diazocine-2,11(3H)-dione]"
6,1.68,"Cc1cc(C(F)(F)F)cc(N2C(=O)C[C@@H]3CN(Cc4ccc(C5CN(C(=O)/C=C/CN(C)C)C5)cc4)c4c(F)cccc4N(C)C(=O)[C@H]32)n1 [Example 146, (3aR,11aS)-5-(4-(1-((E)-4-(dimethylamino)but-2-enoyl)azetidin-3-yl)benzyl)-6-fluoro-10-methyl-1-(6-methyl-4-(trifluoromethyl)pyridin-2-yl)-1,3a,4,5,10,11a-hexahydro-2H-benzo[b]pyrrolo[2,3-f][1,4]diazocine-2,11(3H)-dione]"
7,0.61,"Cc1cc(C(F)(F)F)cc(N2C(=O)C[C@@H]3CN(Cc4cccc(C5CN(C(=O)/C=C/CN(C)C)C5)c4)c4c(F)cccc4N(C)C(=O)[C@H]32)n1 [Example 147, (3aR,11aS)-5-(3-(1-((E)-4-(dimethylamino)but-2-enoyl)azetidin-3-yl)benzyl)-6-fluoro-10-methyl-1-(6-methyl-4-(trifluoromethyl)pyridin-2-yl)-1,3a,4,5,10,11a-hexahydro-2H-benzo[b]pyrrolo[2,3-f][1,4]diazocine-2,11(3H)-dione]"
8,3.35,"C=C(CN(C)C)C(=O)N1CC(OCCCN2C[C@H]3CC(=O)N(c4cc(C(F)(F)F)cc(C)n4)[C@@H]3C(=O)N(C)c3cccc(F)c32)C1 [Example 150, (3aR, 11aS)-5-(3-((1-(2-((dimethylamino)methyl)acryloyl)azetidin-3-yl)oxy)propyl)-6-fluoro-10-methyl-1-(6-methyl-4-(trifluoromethyl)pyridin-2-yl)-1,3a,4,5,10,11a-hexahydro-2H-benzo[b]pyrrolo[2,3-f][1,4]diazocine-2,11(3H)-dione]"

# The remaining lines, values behind:
row,Structure (SMILES),Kinact/Kl [µM⁻¹ s⁻¹]
1,"C=CC(=O)N1CCc2cc(CN3C[C@H]4CC(=O)N(c5cc(C(F)(F)F)cc(C)n5)[C@@H]4C(=O)N(C)c4cccc(F)c43)ccc2C1 [Example 131, (3aR,11aS)-5-((2-acryloyl-1,2,3,4-tetrahydoisoquinolin-6-yl)methyl)-6-fluoro-10-methyl-1-(6-methyl-4-(trifluoromethyl)pyridin-2-yl)-1,3a,4,5,10,11a-hexahydro-2H-benzo[b]pyrrolo[2,3-f][1,4]diazocine-2,11(3H)-dione]",0.53
2,"C=CC(=O)N1CCn2cc(CN3C[C@H]4CC(=O)N(c5cc(C(F)(F)F)cc(C)n5)[C@@H]4C(=O)N(C)c4cccc(F)c43)nc2C1 [Example 132, (3aR,11aS)-5-((7-acryloyl-5,6,7,8-tetrahydroimidazo[1,2-a]pyrazin-2-yl)methyl)-6-fluoro-10-methyl-1-(6-methyl-4-(trifluoromethyl)pyridin-2-yl)-1,3a,4,5,10,11a-hexahydro-2H-benzo[b]pyrrolo[2,3-f][1,4]diazocine-2,11(3H)-dione]",1.86
3,"C=CC(=O)N1CCn2cc(CN3C[C@H]4CC(=O)N(c5cc(C(F)(F)F)cc(C)n5)[C@@H]4C(=O)N(C)c4cccc(Cl)c43)nc2C1 [Example 136, (3aR,11aS)-5-((7-acryloyl-5,6,7,8-tetrahydroimidazo[1,2-a]pyrazin-2-yl)methyl)-6-chloro-10-methyl-1-(6-methyl-4-(trifluoromethyl)pyridin-2-yl)-1,3a,4,5,10,11a-hexahydro-2H-benzo[b]pyrrolo[2,1-f][1,4]diazocine-2,11(3H)-dione]",6.47
4,"C=CC(=O)N1CC(C)(N2CCC(CN3C[C@H]4CC(=O)N(c5cc(C(F)(F)F)cc(C)n5)[C@@H]4C(=O)N(C)c4cccc(Cl)c43)CC2)C1 [Example 137, (3aR,11aS)-5-((1-(1-acryloyl-3-methylazetidin-3-yl)piperidin-4-yl)methyl)-6-chloro-10-methyl-1-(6-methyl-4-(trifluoromethyl)pyridin-2-yl)-1,3a,4,5,10,11a-hexahydro-2H-benzo[b]pyrrolo[2,3-f][1,4]diazocine-2,11(3H)-dione]",0.98
5,"C=CC(=O)N1CC(n2cnc(CN3C[C@H]4CC(=O)N(c5cc(C(F)(F)F)cc(C)n5)[C@@H]4C(=O)N(C)c4cccc(C)c43)n2)C1 [Example 139, (3aR,11aS)-5-((1-(1-acryloylazetidin-3-yl)-1H-1,2,4-triazol-3-yl)methyl)-6,10-dimethyl-1-(6-methyl-4-(trifluoromethyl)pyridin-2-yl)-1,3a,4,5,10,11a-hexahydro-2H-benzo[b]pyrrolo[2,3-f][1,4]diazocine-2,11(3H)-dione]",2.37
6,"Cc1cc(C(F)(F)F)cc(N2C(=O)C[C@@H]3CN(Cc4ccc5c(c4)CN(C(=O)/C=C/CN(C)C)C5)c4c(F)cccc4N(C)C(=O)[C@H]32)n1 [Example 148, (3aR,11aS)-5-((2-((E)-4-(dimethylamino)but-2-enoyl)isoindolin-5-yl)methyl)-6-fluoro-10-methyl-1-(6-methyl-4-(trifluoromethyl)pyridin-2-yl)-1,3a,4,5,10,11a-hexahydro-2H-benzo[b]pyrrolo[2,3-f][1,4]diazocine-2,11(3H)-dione]",1.65
7,"Cc1cc(C(F)(F)F)cc(N2C(=O)C[C@@H]3CN(Cc4ccc5c(c4)CCN(C(=O)/C=C/CN(C)C)C5)c4c(F)cccc4N(C)C(=O)[C@H]32)n1 [Example 149, (3aR, 11aS)-5-((2-((E)-4-(dimethylamino)but-2-enoyl)-1,2,3,4-tetrahydroisoquinolin-6-yl)methyl)-6-fluoro-10-methyl-1-(6-methyl-4-(trifluoromethyl)pyridin-2-yl)-1,3a,4,5,10,11a-hexahydro-2H-benzo[b]pyrrolo[2,3-f][1,4]diazocine-2,11(3H)-dione]",1.08
8,"C=C(CN(C)C)C(=O)N1CC(c2ccc(CN3C[C@H]4CC(=O)N(c5cc(C(F)(F)F)cc(C)n5)[C@@H]4C(=O)N(C)c4cccc(F)c43)cc2)C1 [Example 151, (3aR, 11aS)-5-(4-(1-(2-((dimethylamino)methyl)acryloyl)azetidin-3-yl)benzyl)-6-fluoro-10-methyl-1-(6-methyl-4-(trifluoromethyl)pyridin-2-yl)-1,3a,4,5,10,11a-hexahydro-2H-benzo[b]pyrrolo[2,3-f][1,4]diazocine-2,11(3H)-dione]",2.04
